Results as given in US10775388B2, “Methods of using antibodies to determine periostin levels in a sample” (MEDIMMUNE, LLC, priority 2014, dated 2020).
Several values for one entry are separate records, joined by “and”; a condition that tells them apart may be missing. Equal entries are not always repeated.

Assays:
[1] = test system: EPIAIRWAY™ tissue (normal and asthmatic lung epithelium); experiment: Periostin levels in IL-13 stimulated […] tissue models (sandwich ELISA); type: cell-based, human; conditions: stimulated with 50 ng/mL IL-13 for 48 hours
Experimental: Biotin/streptavidin-HRP-based sandwich ELISA assays were performed as follows. Specific details such as anti-periostin capture antibodies, samples to be tested, and anti-periostin detection antibodies are noted for specific experiments in the various examples Variations to standard ELISA protocols are well known to those of ordinary skill in the art, and can be used according to this disclosure.
High binding ELISA plates were coated with an anti-periostin capture mAb, e.g., 4B4.B11 (2 μg/mL in PBS; 100 μL/well), and were incubated overnight at 4° C. The plates were washed three times with 200 μL/well wash buffer (PBS/0.1% TWEEN-20®). Following washing, 200 μL/well block buffer (e.g., PBS/50× dilution of reagent diluent concentrate (available from R & D Systems)/0.05% TWEEN-20® or PBS/3% nonfat dry milk/0.1% TWEEN-20®) was added to each well, and the plates were incubated for one hour at room temperature. The plates were then washed three times as noted above.
For the standard curve, periostin standards (e.g., standards available from R & D Systems Cat #3548-F2) were serially diluted in block buffer, e.g., 2-fold dilutions from 50 ng/mL to 0.78 ng/mL. […] Finally the plates were read on a spectrophotometer at λ=450 nm. […]

[2] = test system: patients with uncontrolled asthma; conditions: above-median vs below-median baseline serum periostin; cited from earlier work
[3] = test system: adults with uncontrolled, severe asthma; experiment: Phase 2b study CD-RI-CAT-354-1049 of SC tralokinumab, subgroup analysis by baseline serum periostin; type: in vivo, human; conditions: for Asthma exacerbation rate reduction: 300 mg Q2W vs placebo
Experimental: A 5-week screening/run-in period (Week −5 to −1 [Day −1]) preceded randomisation. Starting at Week −4 (Day −28), patients received a fixed-dose combination product of fluticasone/salmeterol, either as an MDI (230 μg/21 μg) at a dose of 2 inhalations twice per day or as a DPI (500 μg/50 μg) at a dose of one inhalation twice per day. If the patient was also taking additional asthma controller medications (including leukotriene modifiers, theophylline, cromones, a secondary ICS, or oral prednisolone 20 mg/day or equivalent OCS), then these medications were to be continued at a stable dose during the screening/run-in and treatment period.
Patients were randomised in a 1:1 ratio to one of 2 cohorts (Cohort 1 or Cohort 2).

[4] = post hoc, 300 mg Q2W, FEV1 reversibility ≥12% and serum periostin < median
[5] = post hoc, 300 mg Q2W, FEV1 reversibility ≥12% and serum periostin ≥ median
[6] = post hoc, reversible patients regardless of serum periostin level

IL-13: 114 amino acid cytokine used to stimulate periostin expression
periostin levels [1]: increase

lebrikizumab: anti-human-IL-13 antibody (SEQ ID NOs 6-7), Roche/Genentech
AER reduction [2]: greater AER reduction | increases in FEV1 [2]: larger increases

tralokinumab: anti-IL-13 monoclonal antibody (SEQ ID NOs 8-9)
percent change from baseline in pre-bronchodilator FEV1 over time ([3]; 300 mg Q2/4W, through to Week 53, periostin < median): No significant increases | Asthma exacerbation rate reduction ([3]; Week 53, ITT (regardless of serum periostin level)): 7% | Asthma exacerbation rate reduction ([3]; Week 53, baseline serum Periostin ≥ Median): 25% | Change from baseline in ACQ-6 ([3]; 300 mg Q2W, ITT): −0.18 | Change from baseline in AQLQ ([3]; 300 mg Q2W, ITT): 0.21 | Change from baseline in ACQ-6 ([3]; 300 mg Q2W, Periostin < Median): −0.02 | Change from baseline in AQLQ ([3]; 300 mg Q2W, Periostin < Median): 0.21 | Change from baseline in ACQ-6 ([3]; 300 mg Q2W, Periostin ≥ Median): −0.23 | Change from baseline in AQLQ ([3]; 300 mg Q2W, Periostin ≥ Median): 0.22 | Percent change from baseline in FEV1 ([3]; 300 mg Q2W, Week 53, ITT (regardless of serum periostin level)): 7.1% | Percent change from baseline in FEV1 ([3]; 300 mg Q2W, Week 53, Periostin < Median): 7.06% | Percent change from baseline in FEV1 ([3]; 300 mg Q2W, Week 53, Periostin ≥ Median): 6.75% and 6.8% | percent change from baseline in pre-bronchodilator FEV1 over time ([3]; 300 mg Q2W, through to Week 53, periostin < median): No significant increases | percent change from baseline in pre-bronchodilator FEV1 over time ([3]; 300 mg Q2W, through to Week 53, periostin >= median): Relative increases | reduction in serum periostin levels ([3]; baseline serum periostin above the median compared to below the median): Greater reduction | increase in FEV1 [3, 4]: 7.62% | reduction in AER [3, 4]: 4% | percentage increase from baseline in pre-bronchodilator FEV1 compared to placebo [3, 5]: 13.85% | reduction in AER [3, 5]: 54% | AER reduction [3, 6]: 34% | increase in FEV1 [3, 6]: 11.07% | serum periostin levels ([3]; soon after the first dose and for the duration of the study): substantially reduced
